Test results taken from patent US7790751B2, “Azinyl-3-sulfonylindazole derivatives as 5-hydroxytryptamine-6 ligands” (Wyeth LLC, priority 2005, dated 2010).
Counter-ions that a name gives are not always drawn.

These compounds were tested against human cloned 5-HT6 receptors (Homo sapiens, UniProt P50406) (assay: Evaluation of 5-HT6 binding affinity of test compounds ([3H]-LSD displacement)).
human cloned 5-HT6 receptors, sequence (P50406 whole entry): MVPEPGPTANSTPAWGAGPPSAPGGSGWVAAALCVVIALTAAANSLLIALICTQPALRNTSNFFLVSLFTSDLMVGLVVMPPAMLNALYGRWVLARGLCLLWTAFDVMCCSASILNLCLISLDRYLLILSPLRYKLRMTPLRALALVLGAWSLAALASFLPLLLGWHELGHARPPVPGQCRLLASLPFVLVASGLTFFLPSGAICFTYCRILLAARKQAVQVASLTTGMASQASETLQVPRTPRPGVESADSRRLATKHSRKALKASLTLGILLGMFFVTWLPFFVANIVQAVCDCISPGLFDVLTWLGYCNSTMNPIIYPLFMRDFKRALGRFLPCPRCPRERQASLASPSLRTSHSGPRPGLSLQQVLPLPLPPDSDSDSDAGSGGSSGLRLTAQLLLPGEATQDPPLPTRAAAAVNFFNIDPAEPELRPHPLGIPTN

| Structure (SMILES) | Ki [nM] |
| --- | --- |
| O=S(=O)(c1cccc2ccccc12)c1n[nH]c2ccc(OC3CCN(CCc4ccccc4)CC3)cc12 [Example 23, 3-(1-Naphthylsulfonyl)-5-{[1-(2-phenylethyl)piperidin-4-yl]oxy}-1H-indazole Hydrochloride] | 11 to 25 |
| CC(C)N1CCC(Oc2ccc3[nH]nc(S(=O)(=O)c4cccc5ccccc45)c3c2)C1 (centres unmarked) [Example 4, 5-(1-Isopropyl-pyrrolidin-3-yloxy)-3-(naphthalene-1-sulfonyl)-1H-indazole Hydrochloride] | 0.01 to 10 |
| O=S(=O)(c1cccc(F)c1)c1n[nH]c2ccc(OC3CCNCC3)cc12 [Example 8, 3-[(3-fluorophenyl)sulfonyl]-5-(piperidin-4-yloxy)-1H-indazole] | 11 to 25 |
| O=S(=O)(c1ccccc1)c1n[nH]c2ccc(NC3CCNCC3)cc12 [Example 49, 3-(phenylsulfonyl)-N-piperidin-4-yl-1H-indazol-5-amine] | 0.01 to 10 |
| O=S(=O)(c1cccc2ccccc12)c1n[nH]c2c(NC3CCCNC3)cccc12 (centres unmarked) [Example 37, 3-(1-Naphthylsulfonyl)-N-piperidin-3-yl-1H-indazol-7-amine Dihydrochloride] | > 45 |
| O=S(=O)(c1cccc2ccccc12)c1n[nH]c2c(NCC3CCNCC3)cccc12 [Example 38, 3-(1-Naphthylsulfonyl)-N-(piperidin-4-ylmethyl)-1H-indazol-7-amine Dihydrochloride] | 11 to 25 |
| O=S(=O)(c1cccc(F)c1)c1n[nH]c2ccc(NC3CCNCC3)cc12 [Example 45, 3-[(3-fluorophenyl)sulfonyl]-N-piperidin-4-yl-1H-indazol-5-amine] | 0.01 to 10 |
| CCCCN1CCC(Oc2ccc3[nH]nc(S(=O)(=O)c4cccc5ccccc45)c3c2)CC1 [Example 20, 5-(1-Butylpiperidin-4-yloxy)-3-(1-naphthylsulfonyl)-1H-indazole Hydrochloride] | 0.01 to 10 |
| O=S(=O)(c1ccc(C(F)(F)F)cc1)c1n[nH]c2ccc(NC3CCNCC3)cc12 [Example 48, N-piperidin-4-yl-3-{[4-(trifluoromethyl)phenyl]sulfonyl}-1H-indazol-5-amine] | 0.01 to 10 |
| O=S(=O)(c1cccc2ccccc12)c1n[nH]c2cc(NC3CCCNC3)ccc12 (centres unmarked) [Example 34, 3-(1-Naphthylsulfonyl)-N-piperidin-3-yl-1H-indazol-6-amine Dihydrochloride] | > 45 |
| COc1ccc(S(=O)(=O)c2n[nH]c3ccc(NC4CCNCC4)cc23)cc1 [Example 50, 3-[(4-methoxyphenyl)sulfonyl]-N-piperidin-4-yl-1H-indazol-5-amine] | 0.01 to 10 |
| O=S(=O)(c1ccc(Cl)cc1)c1n[nH]c2ccc(OC3CCNCC3)cc12 [Example 11, 3-[(4-chlorophenyl)sulfonyl]-5-(piperidin-4-yloxy)-1H-indazole] | 11 to 25 |
| CCN1CCC(Oc2ccc3[nH]nc(S(=O)(=O)c4cccc5ccccc45)c3c2)C1 (centres unmarked) [Example 25, 5-[1-(Ethylpyrrolidin-3-yl)oxy]-3-(1-napthylsulfonyl)-1H-indazole Hydrochloride] | 0.01 to 10 |
| O=S(=O)(c1cccc(Cl)c1)c1n[nH]c2ccc(OC3CCNCC3)cc12 [Example 10, 3-[(3-chlorophenyl)sulfonyl]-5-(piperidin-4-yloxy)-1H-indazole] | 0.01 to 10 |
| O=S(=O)(c1cccc(Cl)c1)c1n[nH]c2ccc(NC3CCNCC3)cc12 [Example 42, 3-[(3-chlorophenyl)sulfonyl]-N-piperidin-4-yl-1H-indazol-5-amine] | 0.01 to 10 |
| O=S(=O)(c1cccc2ccccc12)c1n[nH]c2ccc(NCC3CCNCC3)cc12 [Example 31, 3-(1-Naphthylsulfonyl)-N-(piperidin-4-ylmethyl)-1H-indazol-5-amine Dihydrochloride] | 0.01 to 10 |
| O=S(=O)(c1ccc2ccccc2c1)c1n[nH]c2ccc(NC3CCNCC3)cc12 [Example 44, 3-(2-naphthylsulfonyl)-N-piperidin-4-yl-1H-indazol-5-amine] | 0.01 to 10 |
| O=S(=O)(c1cccc2ccccc12)c1n[nH]c2ccc(OC3CCNCC3)cc12 [Example 6, 3-(1-Naphthylsulfonyl)-5-(piperidin-4-yloxy)-1H-indazole Hydrochloride] | 0.01 to 10 |
| Cc1cccc(S(=O)(=O)c2n[nH]c3ccc(OC4CCNCC4)cc23)c1 [Example 12, 3-[(3-methylphenyl)sulfonyl]-5-(piperidin-4-yloxy)-1H-indazole] | 0.01 to 10 |
| O=S(=O)(c1ccc(F)cc1)c1n[nH]c2ccc(NC3CCNCC3)cc12 [Example 46, 3-[(4-fluorophenyl)sulfonyl]-N-piperidin-4-yl-1H-indazol-5-amine] | 0.01 to 10 |
| Cc1ccc(S(=O)(=O)c2n[nH]c3ccc(OC4CCNCC4)cc23)c2ccccc12 [Example 18, 3-[(4-methyl-1-naphthyl)sulfonyl]-5-(piperidin-4-yloxy)-1H-indazole] | 0.01 to 10 |
| CN1CCC(Oc2ccc3[nH]nc(S(=O)(=O)c4cccc5ccccc45)c3c2)CC1 [Example 21, 5-(1-Methylpiperidin-4-yloxy)-3-(1-naphthylsulfonyl)-1H-indazole Hydrochloride] | 0.01 to 10 |
| CC(C)c1ccc(S(=O)(=O)c2n[nH]c3ccc(OC4CCNCC4)cc23)cc1 [Example 17, 3-[(4-isopropylphenyl)sulfonyl]-5-(piperidin-4-yloxy)-1H-indazole] | 11 to 25 |
| O=C(Nc1cccc2c(S(=O)(=O)c3cccc4ccccc34)n[nH]c12)C1CCCNC1 (centres unmarked) [Example 55, N-[3-(1-Naphthylsulfonyl)-1H-indazol-7-yl]piperidine-3-carboxamide Dihydrochloride] | 0.01 to 10 |
| COc1cccc(S(=O)(=O)c2n[nH]c3ccc(OC4CCNCC4)cc23)c1 [Example 13, 3-[(3-methoxyphenyl)sulfonyl]-5-(piperidin-4-yloxy)-1H-indazole] | 0.01 to 10 |
| O=S(=O)(c1ccc(C(F)(F)F)cc1)c1n[nH]c2ccc(OC3CCNCC3)cc12 [Example 16, 5-(piperidin-4-yloxy)-3-{[4-(trifluoromethyl)phenyl]sulfonyl}-1H-indazole] | 11 to 25 |
| COc1ccc(S(=O)(=O)c2n[nH]c3ccc(OC4CCNCC4)cc23)cc1 [Example 14, 3-[(4-methoxyphenyl)sulfonyl]-5-(piperidin-4-yloxy)-1H-indazole] | > 45 |
| O=S(=O)(c1ccc(Cl)cc1)c1n[nH]c2ccc(NC3CCNCC3)cc12 [Example 43, 3-[(4-chlorophenyl)sulfonyl]-N-piperidin-4-yl-1H-indazol-5-amine] | 0.01 to 10 |
| O=S(=O)(c1cccc2ccccc12)c1n[nH]c2cccc(NC3CCNCC3)c12 [Example 39, 3-(1-Naphthylsulfonyl)-N-piperidin-4-yl-1H-indazol-4-amine Dihydrochloride] | 0.01 to 10 |
| O=S(=O)(c1ccccc1)c1n[nH]c2ccc(OC3CCNCC3)cc12 [Example 7, 3-(phenylsulfonyl)-5-(piperidin-4-yloxy)-1H-indazole] | 11 to 25 |

The remaining lines, values ahead:

| Ki [nM] | Structure (SMILES) |
| --- | --- |
| 0.01 to 10 | O=S(=O)(c1cccc2ccccc12)c1n[nH]c2cccc(NCC3CCNCC3)c12 [Example 41, 3-(1-Naphthylsulfonyl)-N-(piperidin-4-ylmethyl)-1H-indazol-4-amine Dihydrochloride] |
| 26 to 35 | O=S(=O)(c1cccc2ccccc12)c1n[nH]c2c(NC3CCNCC3)cccc12 [Example 36, 3-(1-Naphthylsulfonyl)-N-piperidin-4-yl-1H-indazol-7-amine Dihydrochloride] |
| 0.01 to 10 | CN1CCC(Oc2ccc3[nH]nc(S(=O)(=O)c4cccc5ccccc45)c3c2)C1 (centres unmarked) [Example 5, 5-(1-Methyl-pyrrolidin-3-yloxy)-3-(naphthalene-1-sulfonyl)-1H-indazole Hydrochloride] |
| 36 to 45 | O=S(=O)(c1cccc2ccccc12)c1n[nH]c2cc(NCC3CCNCC3)ccc12 [Example 35, 3-(1-Naphthylsulfonyl)-N-(piperidin-4-ylmethyl)-1H-indazol-6-amine Dihydrochloride] |
| 0.01 to 10 | O=S(=O)(c1cccc2ccccc12)c1n[nH]c2ccc(OC3CCNC3)cc12 (centres unmarked) [Example 1, 3-(Naphthalene-1-sulfonyl)-5-(pyrrolidin-3-yloxy)-1H-indazole] |
| 0.01 to 10 | CC(C)N1CCC(Oc2ccc3[nH]nc(S(=O)(=O)c4cccc5ccccc45)c3c2)CC1 [Example 22, 5-(1-Isopropylpiperidin-4-yloxy)-3-(1-naphthylsulfonyl)-1H-indazole Hydrochloride] |
| 0.01 to 10 | CCCCN1CCC(Oc2ccc3[nH]nc(S(=O)(=O)c4cccc5ccccc45)c3c2)C1 (centres unmarked) [Example 2, 5-(1-Butylpyrrolidin-3-yloxy)-3-(1-naphthylsulfonyl)-1H-indazole Hydrochloride] |
| 0.01 to 10 | O=S(=O)(c1cccc2ccccc12)c1n[nH]c2cccc(NC3CCCNC3)c12 (centres unmarked) [Example 40, 3-(1-Naphthylsulfonyl)-N-piperidin-3-yl-1H-indazol-4-amine Dihydrochloride] |
| 0.01 to 10 | CC(C)c1ccc(S(=O)(=O)c2n[nH]c3ccc(NC4CCNCC4)cc23)cc1 [Example 47, 3-[(4-isopropylphenyl)sulfonyl]-N-piperidin-4-yl-1H-indazol-5-amine] |
| 0.01 to 10 | O=S(=O)(c1cccc(C(F)(F)F)c1)c1n[nH]c2ccc(OC3CCNCC3)cc12 [Example 15, 5-(piperidin-4-yloxy)-3-{[3-(trifluoromethyl)phenyl]sulfonyl}-1H-indazole] |
| > 45 | O=S(=O)(c1ccccc1Cl)c1n[nH]c2ccc(OC3CCNCC3)cc12 [Example 9, 3-[(2-chlorophenyl)sulfonyl]-5-(piperidin-4-yloxy)-1H-indazole] |
| 26 to 35 | O=C(Nc1ccc2c(S(=O)(=O)c3cccc4ccccc34)n[nH]c2c1)C1CCNCC1 [Example 53, N-[3-(1-Naphthylsulfonyl)-1H-indazol-6-yl]piperidine-4-carboxamide Dihydrochloride] |
| 0.01 to 10 | O=S(=O)(c1cccc2ccccc12)c1n[nH]c2ccc(NC3CCNCC3)cc12 [Example 30, [3-(1-Naphthylsulfonyl)-1H-indazol-5-yl]-piperidin-4-ylamine Dihydrochloride] |
| 0.01 to 10 | CCN1CCC(Oc2ccc3[nH]nc(S(=O)(=O)c4cccc5ccccc45)c3c2)CC1 [Example 24, 5-[1-(Ethylpiperidin-4-yl)oxy]-3-(1-naphthylsulfonyl)-1H-indazole Hydrochloride] |
